Calls of active or inactive are those of the source. Cut-off read from the data, not from the text of the source, for most assays here: actives have a measured IC50 and inactives only a lower limit.
Experiments:
[1] = biological target: T1, Sentrin-specific protease 6 (Homo sapiens, UniProt Q9GZR1); assay type: functional;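 note: Luminescence-based dose-response confirmatory assay of SENP6 inhibition, following up an ultra-high-throughput screen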
T1 sequence (Q9GZR1 whole entry): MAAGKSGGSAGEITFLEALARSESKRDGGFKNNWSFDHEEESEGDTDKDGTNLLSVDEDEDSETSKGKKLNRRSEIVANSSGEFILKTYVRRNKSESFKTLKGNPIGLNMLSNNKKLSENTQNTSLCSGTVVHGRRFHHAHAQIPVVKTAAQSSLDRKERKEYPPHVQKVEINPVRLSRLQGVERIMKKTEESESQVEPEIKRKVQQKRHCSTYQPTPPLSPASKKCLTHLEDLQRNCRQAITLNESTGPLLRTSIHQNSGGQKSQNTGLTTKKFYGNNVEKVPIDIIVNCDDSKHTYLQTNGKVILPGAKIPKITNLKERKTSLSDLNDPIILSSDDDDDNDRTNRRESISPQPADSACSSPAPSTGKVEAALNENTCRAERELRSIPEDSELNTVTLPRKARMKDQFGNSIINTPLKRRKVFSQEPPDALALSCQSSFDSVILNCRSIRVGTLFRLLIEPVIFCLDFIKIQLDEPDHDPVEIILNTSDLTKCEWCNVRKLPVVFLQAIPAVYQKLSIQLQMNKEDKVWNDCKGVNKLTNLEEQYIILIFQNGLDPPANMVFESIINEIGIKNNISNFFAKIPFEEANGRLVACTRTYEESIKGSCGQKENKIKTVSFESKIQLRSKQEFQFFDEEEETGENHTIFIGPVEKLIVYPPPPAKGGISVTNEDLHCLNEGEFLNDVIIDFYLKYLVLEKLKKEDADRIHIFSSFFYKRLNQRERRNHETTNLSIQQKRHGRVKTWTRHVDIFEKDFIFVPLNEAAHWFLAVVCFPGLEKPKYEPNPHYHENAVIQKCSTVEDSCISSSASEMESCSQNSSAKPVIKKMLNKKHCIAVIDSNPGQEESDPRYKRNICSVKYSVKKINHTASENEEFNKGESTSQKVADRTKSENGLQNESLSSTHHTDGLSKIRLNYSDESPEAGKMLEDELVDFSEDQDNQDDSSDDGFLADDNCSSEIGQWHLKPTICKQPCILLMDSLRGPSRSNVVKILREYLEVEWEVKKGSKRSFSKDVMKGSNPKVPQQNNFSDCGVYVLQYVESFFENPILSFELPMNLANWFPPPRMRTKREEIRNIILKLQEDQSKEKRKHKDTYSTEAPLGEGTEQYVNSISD

[2] = cytotoxicity in HEK-293T cells, dose response, cytotoxicity control for BCR NF-kB inhibitor project, luminescence, B-cell screen hits (AID 489021); assay type: functional, cell-based;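 note: HEK-293T cells carrying an NF-kB luciferase reporter; cells exposed to compound for about 14 hours before viability readout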
[3] = biological target: T2, Apoptotic protease-activating factor 1 (Homo sapiens, UniProt O14727); assay type: functional
T2 sequence (O14727 whole entry): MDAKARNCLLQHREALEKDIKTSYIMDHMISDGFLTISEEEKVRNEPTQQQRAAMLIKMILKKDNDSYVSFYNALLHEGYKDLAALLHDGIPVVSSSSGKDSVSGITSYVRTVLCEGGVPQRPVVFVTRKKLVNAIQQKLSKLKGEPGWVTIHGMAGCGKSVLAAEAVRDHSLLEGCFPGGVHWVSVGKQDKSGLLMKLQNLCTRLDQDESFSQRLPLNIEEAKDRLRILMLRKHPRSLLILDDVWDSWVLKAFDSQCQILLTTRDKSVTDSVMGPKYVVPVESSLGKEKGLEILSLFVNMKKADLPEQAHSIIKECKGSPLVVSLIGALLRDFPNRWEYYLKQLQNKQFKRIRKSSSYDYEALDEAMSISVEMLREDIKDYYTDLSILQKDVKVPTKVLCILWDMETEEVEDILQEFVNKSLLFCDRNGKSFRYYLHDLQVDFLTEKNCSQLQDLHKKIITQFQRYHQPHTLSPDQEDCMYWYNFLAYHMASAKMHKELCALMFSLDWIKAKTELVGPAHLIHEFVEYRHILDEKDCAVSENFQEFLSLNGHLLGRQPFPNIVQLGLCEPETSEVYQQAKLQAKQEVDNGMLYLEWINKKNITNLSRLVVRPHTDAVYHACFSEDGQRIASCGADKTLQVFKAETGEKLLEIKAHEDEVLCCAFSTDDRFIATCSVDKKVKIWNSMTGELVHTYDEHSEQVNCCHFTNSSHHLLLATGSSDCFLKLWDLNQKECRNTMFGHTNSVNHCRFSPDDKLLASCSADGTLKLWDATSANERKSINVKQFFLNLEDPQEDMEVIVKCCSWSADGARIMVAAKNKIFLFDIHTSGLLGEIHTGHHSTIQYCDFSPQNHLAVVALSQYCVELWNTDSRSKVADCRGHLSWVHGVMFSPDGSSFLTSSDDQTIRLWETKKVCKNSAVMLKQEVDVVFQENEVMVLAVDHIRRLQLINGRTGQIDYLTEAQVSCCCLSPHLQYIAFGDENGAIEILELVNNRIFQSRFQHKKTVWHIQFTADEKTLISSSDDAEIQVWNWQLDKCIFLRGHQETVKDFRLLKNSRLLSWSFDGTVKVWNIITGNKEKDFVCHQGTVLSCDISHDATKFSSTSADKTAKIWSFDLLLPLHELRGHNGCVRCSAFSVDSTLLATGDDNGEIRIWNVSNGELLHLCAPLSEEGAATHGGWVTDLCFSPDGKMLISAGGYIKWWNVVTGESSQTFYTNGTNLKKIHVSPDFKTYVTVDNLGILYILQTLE

## CCC(=O)N(C1=C(NC)C(=O)c2ccccc2C1=O)C(C)C
[1]
  IC50: 16.7 µM (active)
[2]
  IC50: > 80 µM (inactive)
[3]
  IC50: 20.8 µM (active)

Source: ChEMBL document CHEMBL1201862, “PubChem BioAssay data set” (2004)
